Columns and labels:
bladder detrusor = assay: Contraction of isolated rat bladder strip specimens (Magnus system), KCl-induced contraction; format: cell-based; settings: for Contractility of the bladder detrusor according to the compound concentration treated: rat bladder strip
Procedure: Rats were anesthetized with pentobarbital, followed by abdominal incision to remove the bladders and the urethras. The bladder bodies were cut in the longitudinal direction to prepare strip specimens with a size of about 10×3 mm. Additionally, each of the urethras was also cut in the longitudinal direction to prepare specimens with a size of about 10×3 mm. The prepared specimens were suspended in Krebs buffer (37° C., 5 mL), which was aerated with a mixed gas of 95% O2 and 5% CO2. The tension values of the specimens were measured using a Magnus system equipped with an isometric transducer and an amplifier, and the measured values were recorded on a computer via a data collection system.
The specimens were suspended with a load of about 0.5 g. More than 1 hr later, potassium chloride (100 mmol/L) was added and the maximal contraction response was observed. After washing with Krebs buffer, the specimens were suspended with a load of about 0.5 g for stabilization. A potassium chloride solution (7.5 mmol/L) was added to induce the contraction of the specimens. After the contraction-inducing response was stabilized, the test compound was added in a cumulative manner and the response was observed before and after the treatment with the drug.

[1] = system: spontaneously hypertensive rats; assay: Blood pressure and heart rate measurement in hypertensive rats; format: in vivo, rat; settings: continuous intravenous administration for 30 min
Procedure: The blood pressures and heart rates of male spontaneously hypertensive rats were measured. On the day of measurement, indwelling of catheters for blood pressure•heart rate measurement and subject substance administration was carried out under anesthesia with ether. The back of the neck of each rat was incised, a feeding catheter (Atom Medical Corporation) filled with heparinized physiological saline was introduced from the back of the neck; the catheter was inserted into the common carotid artery and internal jugular vein; and the surgical incision was closed. The measurements were conducted in a Bollmann cage under the conscious state and evaluations were carried out after confirming that the individual parameters were stabilized. After confirming the stabilization of blood pressure and heart rate, the test compound was continuously administered intravenously at a flow rate of 5 mL/kg/h for 30 min.
The catheter drawn from the back of the neck was connected to a pressure transducer (DX-200, NIHON KOHDEN CORP.), and the blood pressures and heart rates were measured using a blood pressure amplifier (Gould instrument). The blood pressures and heart rates were recorded on recording paper using a recorder (LINEARCORDER WR3320, GRAPHTEC). The blood pressures and heart rates were converted into values on the recording paper before administration and 2.5, 5, 10, 15, 30, 45 and 60 min after administration. For each individual, rates of increase and decrease in the parameters were evaluated relative to the value before administration (value at 0 min).

male rats = assay: Digestive symptoms after repeated oral administration; format: in vivo, rat; settings: 0.1 mg/kg oral, repeated for 4 days
Procedure: Using male rats, aged 6 weeks, general states of the rats were observed after repeating oral administration of the test compound at a dose of 0.1 mg/kg for 4 days. To a control, injectable water which is a medium was administered.

cynomolgus monkeys = assay: Effects on cardiac function in anesthetized cynomolgus monkeys; format: in vivo, cynomolgus monkey; settings: continuous intravenous 30 min
Procedure: Cynomolgus monkeys were anesthetized with pentobarbital (at an initial dose of 20-30 mg/kg by intravenous administration; at a dose of 4-5 mg/kg/hr by intravenous continuous administration). A tracheal tube was inserted and experiments were carried out under artificial respiration (fresh air+pure oxygen, ventilatory volume: 10-15 mL/kg, ventilation frequency: 10-15 times/min). In the right lying position, the left thorax was opened between the fourth and fifth intercostal spaces. The […] (the origin of the left anterior descending artery or circumflex branch) and the origin of the ascending main artery were peeled off and transducers for blood flow measurement were located there. The blood flow rates were measured using an electronic blood flowmeter or an ultrasonic blood flowmeter. The blood pressures were measured using a pressure transducer in a state where a catheter was inserted into the right femoral artery. The left ventricular internal pressure was measured in a state where a catheter was inserted from the left carotid artery into the left ventricle. The electrocardiogram was measured using needle electrodes installed in the right armpit and the left thorax. After catheters for administration were inserted into the right and left cephalic veins and femoral veins, the test compound, pentobarbital (under anesthesia) or an aqueous solution (SOLITA T3 containing 1.2% NaHCO3) were administered therethrough. The test compound was continuously administered intravenously 30 min using a continuous infusion system. The blood pressure, left ventricular internal pressure, blood flow rate through the coronary artery and electrocardiogram data were simultaneously inputted to a PowerLab system (LabChart6, AD instruments) to measure/calculate average blood pressure, heart rate, average blood flow rate through the coronary artery, beat volume, stroke volume (beat volume/heart rate), maximum first deviation of the left ventricular internal pressure, total peripheral blood vessel resistance (average blood pressure/beat volume), cardiac performance (average blood pressure x beat volume) and double product (systolic arterial pressure x heart rate), which is indicative of myocardial oxygen consumption.
The averages of all evaluation parameters for 1 min were obtained before administration, immediately after administration, and 10 min, 20 min and 30 min after administration, and changes of the averages relative to the value measured before administration which is defined as 100% were calculated.

C[C@@](O)(C/C=C/[C@H]1CCC(=O)[C@@H]1CCSc1nc(C(=O)O)cs1)CCC(F)=C(F)F [Compound 17, 2-[(2-{(1R,5R)-2-oxo-5-[(1E,4S)-7,8,8-trifluoro-4-hydroxy-4-methyl-1,7-octadien-1-yl]cyclopentyl}ethyl)thio]-1,3-thiazole-4-carboxylic acid]
Contractility of the bladder detrusor according to the compound concentration treated (bladder detrusor; 0 nmol/L): 3 % of 7.5 mmol/L KCl | Contractility of the bladder detrusor according to the compound concentration treated (bladder detrusor; 1 nmol/L): −2 % of 7.5 mmol/L KCl | Contractility of the bladder detrusor according to the compound concentration treated (bladder detrusor; 10 nmol/L): 23 % of 7.5 mmol/L KCl | Contractility of the bladder detrusor according to the compound concentration treated (bladder detrusor; 100 nmol/L): 100 % of 7.5 mmol/L KCl | Contractility of the bladder detrusor according to the compound concentration treated (bladder detrusor; 1 μmol/L): 180 % of 7.5 mmol/L KCl | Contractility of the bladder detrusor according to the compound concentration treated (bladder detrusor; 10 μmol/L): 259 % of 7.5 mmol/L KCl | effect on the bladder detrusor (bladder detrusor; summary in words of Table 1): contracted the bladder detrusor | effect on the blood pressure [1]: no effect | digestive symptoms such as soft feces (male rats): No digestive symptoms | cardiac performance (cynomolgus monkeys; 30 ng/kg/min): did not affect | double product (cynomolgus monkeys; 30 ng/kg/min): did not affect | cardiac performance (cynomolgus monkeys; 100 ng/kg/min): did not affect | double product (cynomolgus monkeys; 100 ng/kg/min): did not affect | other cardiac function parameters, including the blood flow rate through the coronary artery (cynomolgus monkeys): did not affect
